Laboratory results from article PMC3187794, “Insights into the Complex Formed by Matrix Metalloproteinase-2 and Alloxan Inhibitors: Molecular Dynamics Simulations and Free Energy Calculations” (PLoS ONE, 2011).

Columns and labels:
Type in all cases: biochemical
MMP-8 = MMP-8 (Homo sapiens, UniProt P22894); assay: MMP inhibition fluorimetric assay (pro-fluorescing peptide substrate), MMP-8
Method: (§1) Inhibitory activities were determined by a fluorimetric assay, where a pro-fluorescing peptide was used as substrate of MMP, and the fluorogenic activity of its cleavage product was measured after co-incubation with test compounds.

MMP-2 = target: T1, MMP-2 (Homo sapiens, UniProt P08253); assay: MMP inhibition fluorimetric assay (pro-fluorescing peptide substrate), MMP-2
T1 sequence (P08253 110-660): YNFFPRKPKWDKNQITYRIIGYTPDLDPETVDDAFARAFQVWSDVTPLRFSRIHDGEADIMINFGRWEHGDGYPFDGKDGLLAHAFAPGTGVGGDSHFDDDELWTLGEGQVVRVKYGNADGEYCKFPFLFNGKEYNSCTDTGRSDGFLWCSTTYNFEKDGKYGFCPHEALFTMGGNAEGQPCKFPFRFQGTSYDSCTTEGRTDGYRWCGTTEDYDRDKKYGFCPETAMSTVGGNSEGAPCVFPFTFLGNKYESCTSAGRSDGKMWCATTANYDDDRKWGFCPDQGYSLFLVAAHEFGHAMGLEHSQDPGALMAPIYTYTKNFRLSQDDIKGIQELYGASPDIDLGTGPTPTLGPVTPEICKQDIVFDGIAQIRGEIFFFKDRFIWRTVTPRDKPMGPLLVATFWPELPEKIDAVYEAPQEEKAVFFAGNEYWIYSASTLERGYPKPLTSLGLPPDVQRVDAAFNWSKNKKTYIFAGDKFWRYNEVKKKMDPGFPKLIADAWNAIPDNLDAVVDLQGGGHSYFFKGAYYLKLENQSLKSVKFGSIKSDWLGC
Method: as §1

MMP-9 = MMP-9 (Homo sapiens, UniProt P14780); assay: MMP inhibition fluorimetric assay (pro-fluorescing peptide substrate), MMP-9
Sequence of MMP-9 (P14780 94-707, species assumed): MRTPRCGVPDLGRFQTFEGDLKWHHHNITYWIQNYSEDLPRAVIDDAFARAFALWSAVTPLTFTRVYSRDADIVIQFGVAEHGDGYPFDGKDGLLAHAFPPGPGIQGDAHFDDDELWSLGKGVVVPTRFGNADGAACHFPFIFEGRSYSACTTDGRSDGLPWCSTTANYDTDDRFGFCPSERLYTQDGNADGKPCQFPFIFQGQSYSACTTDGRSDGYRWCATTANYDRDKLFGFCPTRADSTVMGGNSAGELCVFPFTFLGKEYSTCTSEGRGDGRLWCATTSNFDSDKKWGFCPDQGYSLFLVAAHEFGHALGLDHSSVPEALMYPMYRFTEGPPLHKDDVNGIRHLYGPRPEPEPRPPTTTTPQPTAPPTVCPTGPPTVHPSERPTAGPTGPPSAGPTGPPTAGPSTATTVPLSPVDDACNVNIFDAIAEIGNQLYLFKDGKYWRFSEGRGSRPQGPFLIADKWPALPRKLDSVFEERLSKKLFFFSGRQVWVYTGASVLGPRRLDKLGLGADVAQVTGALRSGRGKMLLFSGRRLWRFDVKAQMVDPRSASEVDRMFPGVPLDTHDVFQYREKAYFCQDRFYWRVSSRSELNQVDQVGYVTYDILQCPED
Method: as §1

Sequence of MMP-8 (P22894 101-467, species assumed): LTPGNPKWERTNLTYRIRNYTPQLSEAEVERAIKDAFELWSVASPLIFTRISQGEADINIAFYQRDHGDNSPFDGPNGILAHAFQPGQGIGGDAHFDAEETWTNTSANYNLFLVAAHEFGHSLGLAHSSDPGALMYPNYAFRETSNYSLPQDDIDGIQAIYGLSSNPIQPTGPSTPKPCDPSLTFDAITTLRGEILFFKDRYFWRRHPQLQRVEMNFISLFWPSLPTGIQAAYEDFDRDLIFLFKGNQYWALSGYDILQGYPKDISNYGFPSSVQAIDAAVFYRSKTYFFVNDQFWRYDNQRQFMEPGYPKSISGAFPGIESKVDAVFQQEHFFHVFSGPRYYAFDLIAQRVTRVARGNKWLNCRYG

Row | SMILES | IC50 (MMP-8) [µM] | IC50 (MMP-2) [µM] | selectivity towards MMP-2, as compared to MMP-9 (MMP-2; MMP-2 vs MMP-9) | IC50 (MMP-9) [µM] | inhibition at 100 µM (MMP-8) [%] | inhibition at 100 µM (MMP-2) [%] | inhibition at 100 µM (MMP-9) [%]
1 | NC(=O)c1ccc(-c2ccc(C(=O)CC3(O)C(=O)NC(=O)NC3=O)cc2)cc1 [BAM] | 0.589 | 0.0871 | > 20 | 1.82 |  |  | 
2 | O=C1NC(=O)C(O)(CC(=O)c2ccc(-c3ccccc3)cc2)C(=O)N1 [BAR] | 0.263 | 0.182 |  | 0.513 |  |  | 
3 | O=C1NC(=O)C(O)(CC(=O)c2ccc(-c3cccc(Cl)c3)cc2)C(=O)N1 [BCL] | 4.47 | 60.3 |  | 20 |  |  | 
4 | O=c1[nH]c(=O)c2cc(-c3ccccc3)nnc2[nH]1 [compound 1] |  |  |  |  | 0 | 0 | 5
5 | O=c1[nH]c(=O)c2cc(-c3ccc(C(F)(F)F)cc3)nnc2[nH]1 [compound 2] |  |  |  |  | 14 | 12 | 27
6 | O=C1NC(=O)C(O)(CC(=O)c2ccccc2)C(=O)N1 [compound 3] | 42.7 |  |  | 44.7 |  | 0 | 
7 | O=C1NC(=O)C(O)(CC(=O)c2ccc(C(F)(F)F)cc2)C(=O)N1 [compound 4] | 8.13 | 38.9 |  |  |  |  | 51
8 | COc1ccc(C(=O)CC2(O)C(=O)NC(=O)NC2=O)cc1 [compound 5] | 6.76 | 21.4 |  | 12.9 |  |  | 
9 | O=C1NC(=O)C(O)(CC(=O)c2ccc([N+](=O)[O-])cc2)C(=O)N1 [compound 6] | 631 |  |  |  |  | 0 | 8
